Measured values: US20100285959A1, “HERBICIDAL MIXTURES” (priority 2006, published 2010)

Tests used:
[1] = system: giant foxtail (SETFA); test: Test 6 field trial, postemergence; type: in vivo, Setaria faberi; details: 1120 g a.i./ha
Description: Corn seeds (hybrid ‘Pioneer 35Y62’) were planted in mid spring season, 3.8 cm deep in a silt loam soil having 4% organic matter and a pH of 5.8. Plots were 10.7 m long by 1.5 m wide with rows spaced 76 cm apart. Seeds were spaced 18 cm apart within the rows. The field was managed using conventional tillage practices. […] All treatments included a surfactant except glufosinate treatments, both alone and in combination. […] Results are summarized in Table 6 and are the means of the three replicates.

[2] = system: shepherd's purse (CAPBP); test: Test 5 field trial, postemergence; type: in vivo, Capsella bursa-pastoris; details: atrazine 1120, glufosinate 470 or glyphosate 1120 g a.i./ha alone
Description: Corn seeds (hybrid ‘Pioneer 38H69’) were planted in mid spring season, 5.1 cm deep in a silty clay loam soil having 3% organic matter and a pH of 6.5. Plots were 9.1 m long by 3.0 m wide with rows spaced 76 cm apart. The field was managed using conventional tillage practices. […] All treatments included a surfactant except glufosinate treatments, both alone and in combination. […] Results are summarized in Table 5 and are the means of the three replicates.

[3] = system: giant foxtail (SETFA); test: Test 1 field trial, preemergence; type: in vivo, Setaria faberi; details: g a.i./ha: Atrazine 1680, S-Metolachlor 1870
Description: (§1) Corn seeds (hybrid ‘Pioneer 34N43’) were planted in mid spring season, 3.8 cm deep in a silt loam soil having 4.6% organic matter and a pH of 6. Plots were 10.7 m long by 1.5 m wide with rows spaced 76 cm apart. Seeds were spaced 18 cm apart within the rows. The field was managed using conventional tillage practices. […] Results are summarized in Table 1 and are the means of the three replicates. […] Colby's Equation (Colby, S. R. “Calculating Synergistic and Antagonistic Responses of Herbicide Combinations,” Weeds, 15(1), pp 20-22 (1967)) calculates the expected additive effect of herbicidal mixtures, and for two active ingredients is of the form:
(§2) Pa+b=Pa+Pb−(PaPb/100) • wherein Pa+b is the percentage effect of the mixture expected from additive contribution of the individual components, • Pa is the observed percentage effect of the first active ingredient at the same use rate as in the mixture, and • Pb is the observed percentage effect of the second active ingredient at the same use rate as in the mixture.

[4] = system: corn (ZEAMD); test: Test 1 field trial, preemergence; type: in vivo, Zea mays ssp. indentata; parameters: scale not given here; details: g a.i./ha: Atrazine 1680, S-Metolachlor 1870
Description: as §1, §2

[5] = system: velvetleaf (ABUTH); test: Test 8 field trial, preemergence; type: in vivo, Abutilon theophrasti; details: g a.i./ha: Cpd 2 100, Atrazine 1680, S-Metolachlor 1870
Description: (§3) Corn seeds (hybrid ‘Pioneer 31G96’) were planted in mid spring season, 3.8 cm deep in a clay loam soil having 2% organic matter and a pH of 6.6. Plots were 6.1 m long by 3.0 m wide with rows spaced 76 cm apart. Seeds were spaced 15 cm apart within the rows. The field was managed using conventional tillage practices. […] A few of the weed species could not be evaluated at every timing. […] Results are the means of the three replicates.

[6] = system: velvetleaf (ABUTH); test: Test 10 field trial, preemergence; type: in vivo, Abutilon theophrasti; details: 28 DAA; g a.i./ha: Cpd 2 100, Atrazine 1680, S-Metolachlor 1870
Description: (§4) Corn seeds (hybrid ‘Pioneer 33P65 RR’) were planted in mid spring season, 2.5 cm deep in a silt loam soil. Plots were 9.1 m long by 3.0 m wide with rows spaced 76 cm apart. The field was managed using conventional tillage practices. […] Results are the means of the three replicates.

[7] = system: velvetleaf (ABUTH); test: Test 1 field trial, preemergence; type: in vivo, Abutilon theophrasti; parameters: scale not given here; details: g a.i./ha: Atrazine 1680, S-Metolachlor 1870
Description: as §1, §2

[8] = system: redroot pigweed (AMARE); test: Test 1 field trial, preemergence; type: in vivo, Amaranthus retroflexus; details: g a.i./ha: Atrazine 1680, S-Metolachlor 1870
Description: as §1, §2

[9] = system: Pennsylvania smartweed (POLPY); test: Test 8 field trial, preemergence; type: in vivo, Polygonum pensylvanicum
Description: as §3

[10] = system: ivyleaf morningglory (IPOHE); test: Test 8 field trial, preemergence; type: in vivo, Ipomoea hederacea; details: g a.i./ha: Cpd 2 100, Atrazine 1680, S-Metolachlor 1870
Description: as §3

[11] = system: common ragweed (AMBEL); test: Test 10 field trial, preemergence; type: in vivo, Ambrosia artemisiifolia; details: 28 DAA; g a.i./ha: Cpd 2 100, Atrazine 1680, S-Metolachlor 1870
Description: as §4

[12] = system: common ragweed (AMBEL); test: Test 8 field trial, preemergence; type: in vivo, Ambrosia artemisiifolia; details: g a.i./ha: Cpd 2 100, Atrazine 1680, S-Metolachlor 1870
Description: as §3

[13] = system: Pennsylvania smartweed (POLPY); test: Test 1 field trial, preemergence; type: in vivo, Polygonum pensylvanicum; details: g a.i./ha: Atrazine 1680, S-Metolachlor 1870
Description: as §1, §2

[14] = system: Surinam grass (BRADC); test: Test 11 field trial, preemergence; type: in vivo, Brachiaria decumbens; parameters: scale not given here
Description: Corn seeds (hybrid ‘Pioneer 3041’) were planted in mid spring season, 5 cm deep in a clay soil having 2.6% organic matter and a pH of 5.6. Plots were 8 m long by 1.5 m wide with rows spaced 80 cm apart. Seeds were spaced 15 cm apart within the rows. The field was managed using conventional tillage practices. […] Treatments consisted of Compound 2 or
Goosegrass was not evaluated 16 or 91 days after application.

[15] = 29 DAA, g a.i./ha: Cpd 2 100, Atrazine 1680, S-Metolachlor 1870

SMILES: O=C(O)CNCP(=O)(O)O [Glyphosate]
- SETFA Obs ([1]; 14 DAA): 100%
- SETFA Obs ([1]; 28 DAA): 100%
- CAPBP Obs ([2]; 16 DAA): 98%
- CAPBP Obs ([2]; 31 DAA): 100%

SMILES: CCc1cccc(C)c1N(C(=O)CCl)[C@@H](C)COC [S-Metolachlor, S-metolachlor, reference compound]
- SETFA Obs ([3]; 28 DAA): 57
- SETFA Obs ([3]; 56 DAA): 100
- ZEAMD Obs ([4]; 28 DAA): 0
- ZEAMD Obs ([4]; 56 DAA): 0
- ABUTH Obs ([5]; 19 DAA): 28%
- ABUTH Obs ([5]; 29 DAA): 42%
- ABUTH Obs ([5]; 56 DAA): 18%
- ABUTH Obs [6]: 37%
- ABUTH Obs ([7]; 28 DAA): 33
- ABUTH Obs ([7]; 56 DAA): 0
- AMARE Obs ([8]; 28 DAA): 100
- AMARE Obs ([8]; 56 DAA): 80
- POLPY Obs [9, 15]: 100%
- IPOHE Obs ([10]; 19 DAA): 10%
- IPOHE Obs ([10]; 29 DAA): 25%
- IPOHE Obs ([10]; 56 DAA): 3%
- AMBEL Obs [11]: 20%
- AMBEL Obs ([12]; 19 DAA): 32%
- AMBEL Obs ([12]; 29 DAA): 23%
- AMBEL Obs ([12]; 56 DAA): 23%
- POLPY Obs ([13]; 28 DAA): 57
- POLPY Obs ([13]; 56 DAA): 20

SMILES: Nc1nc(C2CC2)nc(C(=O)O)c1Cl [Compound 1, 6-amino-5-chloro-2-cyclopropyl-4-pyrimidinecarboxylic acid]
- BRADC Obs ([14]; 16 DAA, Cpd 2/Cpd 1 at 62 g a.i./ha, alone or + atrazine 1500 or metolachlor 2500): 20
- BRADC Obs ([14]; 16 DAA, Cpd 2/Cpd 1 at 125 g a.i./ha, alone or + atrazine 1500 or metolachlor 2500): 40
- BRADC Obs ([14]; 30 DAA, Cpd 2/Cpd 1 at 62 g a.i./ha, alone or + atrazine 1500 or metolachlor 2500): 20
- BRADC Obs ([14]; 30 DAA, Cpd 2/Cpd 1 at 125 g a.i./ha, alone or + atrazine 1500 or metolachlor 2500): 50
- BRADC Obs ([14]; 44 DAA, Cpd 2/Cpd 1 at 62 g a.i./ha, alone or + atrazine 1500 or metolachlor 2500): 0
- BRADC Obs ([14]; 44 DAA, Cpd 2/Cpd 1 at 125 g a.i./ha, alone or + atrazine 1500 or metolachlor 2500): 40
- BRADC Obs ([14]; 62 DAA, Cpd 2/Cpd 1 at 62 g a.i./ha, alone or + atrazine 1500 or metolachlor 2500): 0
- BRADC Obs ([14]; 62 DAA, Cpd 2/Cpd 1 at 125 g a.i./ha, alone or + atrazine 1500 or metolachlor 2500): 0
- BRADC Obs ([14]; 91 DAA, Cpd 2/Cpd 1 at 62 g a.i./ha, alone or + atrazine 1500 or metolachlor 2500): 0
- BRADC Obs ([14]; 91 DAA, Cpd 2/Cpd 1 at 125 g a.i./ha, alone or + atrazine 1500 or metolachlor 2500): 0

SMILES: CCNc1nc(Cl)nc(NC(C)C)n1 [Atrazine, atrazine, reference compound]
- SETFA Obs ([3]; 28 DAA): 93
- SETFA Obs ([3]; 56 DAA): 0
- ZEAMD Obs ([4]; 28 DAA): 0
- ZEAMD Obs ([4]; 56 DAA): 0
- ABUTH Obs ([5]; 19 DAA): 87%
- ABUTH Obs ([5]; 29 DAA): 99%
- ABUTH Obs ([5]; 56 DAA): 98%
- ABUTH Obs [6]: 55%
- ABUTH Obs ([7]; 28 DAA): 75
- ABUTH Obs ([7]; 56 DAA): 0
- AMARE Obs ([8]; 28 DAA): 100
- AMARE Obs ([8]; 56 DAA): 93
- POLPY Obs [9, 15]: 100%
- POLPY Obs ([9]; 56 DAA, g a.i./ha: Cpd 2 100, Atrazine 1680): 100%
- IPOHE Obs ([10]; 19 DAA): 45%
- IPOHE Obs ([10]; 29 DAA): 100%
- IPOHE Obs ([10]; 56 DAA): 95%
- AMBEL Obs [11]: 95%
- SETFA Obs ([1]; 14 DAA): 0%
- SETFA Obs ([1]; 28 DAA): 0%
- AMBEL Obs ([12]; 19 DAA): 83%
- AMBEL Obs ([12]; 29 DAA): 98%
- AMBEL Obs ([12]; 56 DAA): 100%
- BRADC Obs ([14]; 16 DAA, atrazine 1500 or metolachlor 2500 g a.i./ha alone): 40
- BRADC Obs ([14]; 30 DAA, atrazine 1500 or metolachlor 2500 g a.i./ha alone): 20
- BRADC Obs ([14]; 44 DAA, atrazine 1500 or metolachlor 2500 g a.i./ha alone): 0
- BRADC Obs ([14]; 62 DAA, atrazine 1500 or metolachlor 2500 g a.i./ha alone): 0
- BRADC Obs ([14]; 91 DAA, atrazine 1500 or metolachlor 2500 g a.i./ha alone): 0
- CAPBP Obs ([2]; 16 DAA): 95%
- CAPBP Obs ([2]; 31 DAA): 100%
- POLPY Obs ([13]; 28 DAA): 93
- POLPY Obs ([13]; 56 DAA): 100
